Measurements published in patent US20110263546A1, “Polyhydroxylated Bile Acids for Treatment of Biliary Disorders” (priority 2008, published 2011).
Entries after “also recorded” stand apart in the source; their conditions may differ. Like-named read-outs stand apart in the source and are kept apart here.

How the values were obtained:
wild-type mice [1] = assay: Bile flow rate (BFR) by bile duct cannulation after tail vein infusion; format: in vivo, mouse; conditions: for Bile flow rate, UDC compared with THBAs at similar quantity: 65 μmol/kg body weight infusion; for Bile flow rate on infusion of increasing quantities: 65-400 μmol/kg BW (6β,7αTHBA), 65 and 200 μmol/kg BW (6α,7αTHBA)
Procedure: After 20 minutes of bile flow equilibration, bile was collected into pre-weighed tubes at 5-minute intervals for 10 minutes. A bolus of 3α,6α,7α,12α-tetrahydroxy-5β-cholan-24-oic acid (6α,7αTHBA, pH.7.4-7.6), 3α,6β,7α,12α-tetrahydroxy-5β-cholan-24-oic acid (6β,7αTHBA, pH.7.4-7.6), ursodeoxycholic acid (UDC, pH.7.4-7.6) or cholic acid (100 μmol/kg body weight) was then infused into the tail vein over a 20-second interval. Bile was then further collected through the cannula at 2-minute intervals for 10 or 20 minutes, followed by 10-minute intervals for 30 minutes. The bile flow rate was calculated by weighing the tubes containing the collected bile.

wild-type mice [2] = conditions: for Infusion dose tolerated without death (highest dosage tested) / MTD compared with that of UDC: wild-type mice, tail vein infusion
Procedure: The maximum tolerated dose of bile acid according to the invention was determined. This test is carried out in two ways. First, as a pilot experiment of bile duct cannulation, a bolus of bile acid was infused into mice under anesthesia to measure its acute toxicity to animals. The responses of mice such as breath rate, bile flow rate, histological changes by H&E staining and the like were recorded. […] Using this tolerance level as a reference point, the acute toxicity of the bile acid was determined.
Bile collected was used for HPLC analysis.

[3] = system: TKO, bsep−/−, mdr1a/b−/− and wildtype mice; conditions: female TKO mice, 0.5% CA diet
Procedure: Mice were maintained in a 12-hour light and dark cycle, at 22° C., with free access to food and water. The mice were fed a normal diet except where specified otherwise in the results.
Chronic toxicity is tested by supplementing the diets of mice (wild-type as well as the hypersensitive bsep KO mice) with 0.1%-0.5% β-muricholate or bile acid according to the invention. Control feeding experiments use cholate as well as ursodeoxycholate.

[4] = system: TKO, bsep−/−, mdr1a/b−/− and wildtype mice; conditions: 0.5% cholate diet, cited from earlier work
mice = conditions: cited from earlier work
[5] = mice, intravenous bolus (tail vein) infusion under anesthesia

What does the source list for `C[C@H](CCC(=O)O)[C@H]1CC[C@H]2[C@@H]3[C@H](O)[C@H](O)[C@@H]4C[C@H](O)CC[C@]4(C)[C@H]3C[C@H](O)[C@]12C` [6α,7αTHBA, 3α,6α,7α,12α-tetrahydroxy-5β-cholan-24-oic acid]?
Bile flow rate, UDC compared with THBAs at similar quantity (wild-type mice [1]): similar; Bile flow rate on infusion of increasing quantities (wild-type mice [1]): corresponding increase in bile flow rate; Effect on bile flow rate (BFR) (wild-type mice [1]; bolus 100 μmol/kg body weight into tail vein): stimulates bile flow rate; also recorded: promotes bile flow; Maximum tolerated dose (MTD) (wild-type mice [2]; [5]): > 400 μmol/kg of body weight; Infusion dose tolerated without death (highest dosage tested) (wild-type mice [2]): 400 μmol/kg of body weight; MTD compared with that of UDC (wild-type mice [2]): several times higher

For `C[C@H](CCC(=O)O)[C@H]1CC[C@H]2[C@@H]3[C@H](O)[C@@H](O)[C@@H]4C[C@H](O)CC[C@]4(C)[C@H]3C[C@H](O)[C@]12C` [6β,7αTHBA, 3α,6β,7α,12α-tetrahydroxy-5β-cholan-24-oic acid], which “Bile flow rate, UDC compared with THBAs at similar quantity” value (wild-type mice [1]) is on record?
Its value is “similar”.

And the “Bile flow rate on infusion of increasing quantities” value (wild-type mice [1])?
Its value is “corresponding increase in bile flow rate”.

And the “Maximum tolerated dose (MTD)” value (wild-type mice [2]; [5])?
The value was > 500 μmol/kg of body weight.

And the “Infusion dose tolerated without death (highest dosage tested)” value (wild-type mice [2])?
The value was 500 μmol/kg of body weight.

And the “MTD compared with that of UDC” value (wild-type mice [2])?
Its value is “several times higher”.

For `C[C@H](CCC(=O)O)[C@H]1CC[C@H]2[C@@H]3[C@H](O)C[C@@H]4C[C@H](O)CC[C@]4(C)[C@H]3C[C@H](O)[C@]12C` [CA, 3α,7α,12α-trihydroxy-5β-cholan-24-oic acid], which “Time until terminally ill or died” value [3] is on record?
Its value is 3 to 7 days.

What about the Time to death ([4]; female TKO mice) of the same compound?
Its Time to death is “within a week”.

What about the Time to death ([4]; male bsep KO mice) of the same compound?
The Time to death was at most 10 days.

Which LD50 (mice; mouse, in vivo, iv) does the source give for `C[C@H](CCC(=O)O)[C@H]1CC[C@H]2[C@@H]3[C@@H](O)C[C@@H]4C[C@H](O)CC[C@]4(C)[C@H]3CC[C@]12C` [UDC, ursodeoxycholic acid, reference compound] here?
The LD50 was about 600 µmol/kg.

And the “Oral LD50 relative to intravenous LD50” value (mice; rodents)?
Its value is “at least 15 times”.

And the “Infused dose that caused death” value (wild-type mice [2]; FVB/NJ, mouse, in vivo)?
The value was at least 70 μmol/kg body weight.

And the “Maximum tolerated dose (MTD)” value (wild-type mice [2]; mouse, in vivo, iv)?
The value was 65 μmol/kg of body weight.
